System: acetic acid-induced gastric ulcer
Assay: Healing effect on acetic acid-induced gastric ulcer of rat
Format: in vivo
Conditions: male Donryu rat, oral, 50 mg/kg two times a day, 10 consecutive days; ulcer surface area
Method: A male Donryu rat of 7-week age was subjected to abdominal incision to expose the stomach, with pentobarbital used as an anesthesia. Using a metal ring having an inside diameter of 10 mm, 200 μL of glacial acetic acid was applied for contact with a serosa-side part of a boundary area between the antrum and the corpus body. The abdomen of the specimen rat subjected to the glacial acetic acid was closed by an operation, and the rat was then fed in a normal way. The compound obtained in Example 16 was orally administered as a specimen drug to the specimen rat two times a day (at 9:00 a.m. and 5:00 p.m.), each time with a dose of 50 mg/kg, beginning on the day following the day on which the glacial acetic acid was applied to the rat. The oral administration continued for 10 consecutive days, with a total of 20 administrations. On the day following the last day of administration, the specimen rat was sacrificed with ether, and the ulcer portion of the rat was fixed with formalin. The surface area of the ulcer portion was measured. The healing percent (%) calculated on the basis of the measured surface area was 28.9%.

| Structure (SMILES) | healing percent [%] |
| --- | --- |
| CN(C)c1ccccc1CSC1=NC(C)(C)C(=O)N1 [Example 16, 2-(2-dimethylaminobenzylthio)-5,5-dimethylimidazolin-4-one] | 28.9 |

System: not listed separately
Assay: Single-dose toxicity study
Conditions: mouse, in vivo, male ddY mice, oral, observed two weeks, read-out: median lethal dose LD50
Method: Ten male ddY mice (each having a weight of 22-28 g) were used as specimen animal in a cage kept at a substantially constant temperature of 23°±1° C. and under a substantially constant humidity of 55±5%. The compound prepared in Example 39, that is, 2-(2-dimethylaminobenzylthio)-5,5-dimethylimidazolin-4-thione was used as the specimen drug. This compound was suspended in a 2% solution of polysorbate 80, and the suspension was administered to each specimen mouse, with different doses. […] On the basis of the death percent, lethal dose (LD50) which causes a 50% death was obtained as an index indicative of the single dose toxicity. The obtained median lethal dose LD50 (oral administration) was 2000 mg/kg or more. It was thus confirmed that the median lethal dose LD50 (oral administration) of the compound according to the present invention was sufficiently large, indicating a low degree of toxicity or a high degree of safety.

| Structure (SMILES) | LD50 at 336 h [mg/kg] |
| --- | --- |
| CN(C)c1ccccc1CSC1=NC(C)(C)C(=S)N1 [Example 39, 2-(2-dimethylaminobenzylthio)-5,5-dimethylimidazolin-4-thione] | ≥ 2000 |

System: water-immersion restraint stress-induced gastric ulcer
Assay: Inhibitory effect on water-immersion restraint stress-induced gastric ulcer
Format: in vivo
Conditions: male SD rats, oral, 10 mg/kg, 7 h water-immersion restraint stress
Method: Male 7-week SD rats were fasted for 24 hours, with a fast of water beginning in early morning of the day when the experiments were performed. The rats were classified into groups each consisting of five rats, such that all the groups have substantially the same average weight. Before giving a stress to the rats, the compounds of the Examples indicated in TABLE 1 were orally administered as specimen drugs to the rats, with a dose of 10 mg/kg. The rats were then kept in stress cages, and were given a stress by immersing the cages in a water bath kept at a substantially constant temperature of 23°±1° C., such that the water level was at the height of the xiphoid of the rats. Seven hours later, the specimen rats were sacrificed by ether, and the mucosa of the stomach of each rat was semi-fixed with 2% formalin. The longitudinal length of the damaged area of the gastric mucosa was measured. A sum of the measured length values of the rats of each group was calculated as an ulcer index. An anti-ulcer or ulcer inhibitory percent (%) was calculated as {1-(ulcer index of each group of specimen rats)/(ulcer index of non-specimen group)}×100.

| Structure (SMILES) | Inhibitory Percent (ulcer inhibitory percent) [%] |
| --- | --- |
| CN(C)c1ccccc1CSC1=NC(C)(C)C(=O)N1 [Example 16, 2-(2-dimethylaminobenzylthio)-5,5-dimethylimidazolin-4-one] | 82.4 |
| CN(C)c1ccccc1CSC1=NC(=O)/C(=C\c2ccccc2)N1 [Example 18, 2-(2-dimethylaminobenzylthio)-5-trans-benzylideneimidazolin-4-one] | 34.1 |
| CCC1(c2ccccc2)N=C(SCc2ccccn2)NC1=O (centres unmarked) [Example 13, 2-(2-pyridylmethylthio)-5-ethyl-5-phenylimidazolin-4-one] | 46.3 |
| CN1C(=O)C(C)(C)N=C1SCc1ccccc1N(C)C [Example 35, 1-N-methyl-2-(2-dimethylaminobenzylthio)-4,4-dimethyl-2-imidazolin-5-one] | 30.6 |
| C=C1NC(SCc2ccccn2)=NC1=O [Example 5, 2-(2-pyridylmethylthio)-5-trans-methylideneimidazolin-4-one] | 23.3 |
| CC1(C)N=C(SCc2cccc3cccnc23)NC1=S [Example 44, 2-(8-quinolynylmethylthio)-5,5-dimethylimidazolin-4-thione] | 28.8 |
| CC1N=C(SCc2ccccc2N(C)C)NC1=O (centres unmarked) [Example 22, 2-(2-dimethylaminobenzylthio)-5-methylimidazolin-4-one] | 48.9 |
| CCC1(CC)N=C(SCc2ccccc2N(C)C)NC1=O [Example 28, 2-(2-dimethylaminobenzylthio)-5,5-diethylimidazolin-4-one] | 73.8 |
| O=C1N=C(SCc2ccccn2)N/C1=C/c1ccccc1 [Example 4, 2-(2-pyridylmethylthio)-5-trans-benzylideneimidazolin-4-one] | 63.3 |

System: hydrochloric acid.ethanol-induced gastric ulcer
Assay: Inhibitory effect on hydrochloric acid.ethanol-induced gastric ulcer
Format: in vivo
Conditions: Rattus norvegicus, 1 h, male SD rats, oral, 30 min before 98% ethanol containing 200 mM hydrochloric acid, read-out: Inhibitory Percent (ulcer inhibitory percent)
Method: Male SD rats of 7-week age were fasted for 24 hours, with a fast of water beginning in early morning of the day when the experiments were performed. The rats were classified into groups each consisting of five rats, such that all the groups have substantially the same average weight. Before giving hydrochloric acid.ethanol to the rats, the compounds of the Examples indicated in TABLE 2 were orally administered as specimen drugs to the rats, with a dose of 30 mg/kg. Thirty minutes later, 1 mL of 98% ethanol containing 200 mM of hydrochloric acid was orally administered to each specimen rat. One hour later, the specimen rats were sacrificed by ether, and the mucosa of the stomach of each rat was semi-fixed with 2% formalin. The longitudinal length of the damaged area of the gastric mucosa was measured, and the anti-ulcer percent values of the individual specimen drugs were calculated on the basis of the sum of the measured length values of each group of the specimen rats, in the same manner as in Example 68.

| Structure (SMILES) | inhibition in vivo at 30 mg/kg [%] |
| --- | --- |
| O=C1CN=C(SCc2ccccn2)N1 [Example 1, 2-(2-pyridylmethylthio)imidazolin-4-one] | 71.9 |
| CN(C)c1ccccc1CSC1=NC(C)(c2ccccc2)C(=S)N1 (centres unmarked) [Example 41, 2-(2-dimethylaminobenzylthio)-5-phenyl-5-methylimidazolin-4-thione] | 74.5 |
| CC(C)CN(C)c1ccccc1CSC1=NC(C)(C)C(=O)N1 [Example 21, 2-(2-N-isobutyl-N-methylaminobenzylthio)-5,5-dimethylimidazolin-4-one] | 99.6 |
| CC1N=C(SCc2ccccn2)NC1=O (centres unmarked) [Example 9, 2-(2-pyridylmethylthio)-5-methylimidazolin-4-one] | 94.9 |
| CC1(C)N=C(SCc2ccccn2)NC1=O [Example 8, 2-(2-pyridylmethylthio)-5,5-dimethylimidazolin-4-one] | 93 |
| CN(C)c1ccccc1CSC1=NC(Cc2ccccc2)C(=O)N1 (centres unmarked) [Example 23, 2-(2-dimethylaminobenzylthio)-5-benzylimidazolin-4-one] | 83.6 |
| CCCCC1(CC)N=C(SCc2ccccc2N(C)C)NC1=O (centres unmarked) [Example 29, 2-(2-dimethylaminobenzylthio)-5-butyl-5-ethylimidazolin-4-one] | 69.5 |
| CCC1(C)C(=O)N=C(SCc2ccccc2N(C)C)N1C(C)=O (centres unmarked) [Example 34, 1-N-acetyl-2-(2-dimethylaminobenzylthio)-5-ethyl-5-methyl-2-imidazolin-4-one] | 52 |

Same assay, conditions: male SD rats, oral, 30 mg/kg, 30 min before 98% ethanol containing 200 mM hydrochloric acid

| Structure (SMILES) | Inhibitory Percent (ulcer inhibitory percent) [%] |
| --- | --- |
| CN(C)c1ccccc1CSC1=NC(=O)/C(=C\c2ccccc2)N1 [Example 18, 2-(2-dimethylaminobenzylthio)-5-trans-benzylideneimidazolin-4-one] | 37.4 |

From US5733922A, “Imidazole derivative, pharmaceutically acceptable salt thereof, and anti-ulcer drug including such derivative or salt” (Arax Co., Ltd., priority 1995, dated 1998)
